Key:
MDA-MB-231 = assay: Cytotoxicity against human MDA-MB-231 cells assessed as growth inhibition after 24 hrs by MTT assay; assay type: cell-based; conditions: MDA-MB-231, 24 h
SNB-75 = assay: Cytotoxicity against human SNB75 cells assessed as cell growth at 10 uM after 48 hrs by SRB assay relative to control; assay type: functional; conditions: SNB-75, 48 h, read-out: Activity
SK-MEL-2 = assay: Cytotoxicity against human SK-MEL-2 cells assessed as cell growth at 10 uM after 48 hrs by SRB assay relative to control; assay type: functional; conditions: SK-MEL-2, 48 h, read-out: Activity
A549 = assay: Cytotoxicity against human A549 cells assessed as cell growth at 10 uM after 48 hrs by SRB assay relative to control; assay type: functional; conditions: A549, 48 h, read-out: Activity
[1] = Cytotoxicity against human SKOV3 cells assessed as cell growth at 10 uM after 48 hrs by SRB assay relative to control; assay type: functional; conditions: SK-OV-3, 48 h, read-out: Activity
SF-539 = assay: Cytotoxicity against human SF539 cells assessed as cell growth at 10 uM after 48 hrs by SRB assay relative to control; assay type: functional; conditions: SF-539, 48 h, read-out: Activity
MCF7 = assay: Growth inhibition of human MCF7 cells after 72 hrs by MTT assay; assay type: functional, cell-based; conditions: MCF7, 72 h
HCC 2998 = assay: Cytotoxicity against human HCC2998 cells assessed as cell growth at 10 uM after 48 hrs by SRB assay relative to control; assay type: functional; conditions: HCC 2998, 48 h, read-out: Activity
[2] = Cytotoxicity against human OVCAR8 cells assessed as cell growth at 10 uM after 48 hrs by SRB assay relative to control; assay type: functional; conditions: OVCAR-8, 48 h, read-out: Activity
SN12C = assay: Cytotoxicity against human SN12C cells assessed as cell growth at 10 uM after 48 hrs by SRB assay relative to control; assay type: functional; conditions: read-out: Activity
KM12 = assay: Cytotoxicity against human KM12 cells assessed as cell growth at 10 uM after 48 hrs by SRB assay relative to control; assay type: functional; conditions: KM12, 48 h, read-out: Activity
CCRF-CEM = assay: Cytotoxicity against human CCRF-CEM cells assessed as cell growth at 10 uM after 48 hrs by SRB assay relative to control; assay type: functional; conditions: read-out: Activity
[3] = Cytotoxicity against human HCT116 cells assessed as cell growth at 10 uM after 48 hrs by SRB assay relative to control; assay type: functional; conditions: HCT-116, 48 h, read-out: Activity
RXF 393 = assay: Cytotoxicity against human RXF393 cells assessed as cell growth at 10 uM after 48 hrs by SRB assay relative to control; assay type: functional; conditions: RXF 393, 48 h, read-out: Activity
ACHN = assay: Cytotoxicity against human ACHN cells assessed as cell growth at 10 uM after 48 hrs by SRB assay relative to control; assay type: functional; conditions: read-out: Activity
[4] = Cytotoxicity against human OVCAR5 cells assessed as cell growth at 10 uM after 48 hrs by SRB assay relative to control; assay type: functional; conditions: OVCAR-5, 48 h, read-out: Activity
A498 = assay: Cytotoxicity against human A498 cells assessed as cell growth at 10 uM after 48 hrs by SRB assay relative to control; assay type: functional; conditions: A498, 48 h, read-out: Activity
U-251 = assay: Cytotoxicity against human U251 cells assessed as cell growth at 10 uM after 48 hrs by SRB assay relative to control; assay type: functional; conditions: U-251, 48 h, read-out: Activity
[5] = Cytotoxicity against human PC3 cells assessed as cell growth at 10 uM after 48 hrs by SRB assay relative to control; assay type: functional; conditions: PC-3, 48 h, read-out: Activity
TK-10 = assay: Cytotoxicity against human TK10 cells assessed as cell growth at 10 uM after 48 hrs by SRB assay relative to control; assay type: functional; conditions: TK-10, 48 h, read-out: Activity
SK-MEL-5 = assay: Cytotoxicity against human SK-MEL-5 cells assessed as cell growth at 10 uM after 48 hrs by SRB assay relative to control; assay type: functional; conditions: SK-MEL-5, 48 h, read-out: Activity
COLO 205 = assay: Cytotoxicity against human COLO205 cells assessed as cell growth at 10 uM after 48 hrs by SRB assay relative to control; assay type: functional; conditions: COLO 205, 48 h, read-out: Activity
HOP-62 = assay: Cytotoxicity against human HOP62 cells assessed as cell growth at 10 uM after 48 hrs by SRB assay relative to control; assay type: functional; conditions: HOP-62, 48 h, read-out: Activity
RPMI-8226 = assay: Cytotoxicity against human RPMI8226 cells assessed as cell growth at 10 uM after 48 hrs by SRB assay relative to control; assay type: functional; conditions: RPMI-8226, 48 h, read-out: Activity
[6] = Cytotoxicity against human UACC257 cells assessed as cell growth at 10 uM after 48 hrs by SRB assay relative to control; assay type: functional; conditions: UACC-257, 48 h, read-out: Activity
IGROV-1 = assay: Cytotoxicity against human IGROV1 cells assessed as cell growth at 10 uM after 48 hrs by SRB assay relative to control; assay type: functional; conditions: IGROV-1, 48 h, read-out: Activity
HL-60(TB) = assay: Cytotoxicity against human HL-60(TB) cells assessed as cell growth at 10 uM after 48 hrs by SRB assay relative to control; assay type: functional; conditions: HL-60, 48 h, read-out: Activity
T47D = assay: Cytotoxicity against human T47D cells assessed as cell growth at 10 uM after 48 hrs by SRB assay relative to control; assay type: functional; conditions: read-out: Activity
SNB-19 = assay: Cytotoxicity against human SNB19 cells assessed as cell growth at 10 uM after 48 hrs by SRB assay relative to control; assay type: functional; conditions: SNB-19, 48 h, read-out: Activity
HT-29 = assay: Cytotoxicity against human HT-29 cells assessed as cell growth at 10 uM after 48 hrs by SRB assay relative to control; assay type: functional; conditions: HT-29, 48 h, read-out: Activity
[7] = Cytotoxicity against human Hs 578T cells assessed as cell growth at 10 uM after 48 hrs by SRB assay relative to control; assay type: functional; conditions: read-out: Activity
786-0 = assay: Cytotoxicity against human 786-0 cells assessed as cell growth at 10 uM after 48 hrs by SRB assay relative to control; assay type: functional; conditions: 786-0, 48 h, read-out: Activity
[8] = Cytotoxicity against human NCI-ADR-RES cells assessed as cell growth at 10 uM after 48 hrs by SRB assay relative to control; assay type: functional; conditions: read-out: Activity
[9] = Cytotoxicity against human OVCAR3 cells assessed as cell growth at 10 uM after 48 hrs by SRB assay relative to control; assay type: functional; conditions: OVCAR-3, 48 h, read-out: Activity
[10] = Cytotoxicity against human HCT15 cells assessed as cell growth at 10 uM after 48 hrs by SRB assay relative to control; assay type: functional; conditions: HCT-15, 48 h, read-out: Activity
K562 = assay: Cytotoxicity against human K562 cells assessed as cell growth at 10 uM after 48 hrs by SRB assay relative to control; assay type: functional; conditions: K562, 48 h, read-out: Activity

Question: For CC(C)=CCC[C@H](C)c1ccc(C)c(CO)c1O, which IC50 (MDA-MB-231) is on record?
Answer: > 20 µM

Question: And the growth at 10 µM (SNB-75)?
Answer: 83.4%

Question: What about the growth at 10 µM (SK-MEL-2) of the same molecule?
Answer: 102%

Question: What about the growth at 10 µM (A549) of the same molecule?
Answer: 78.5%

Question: What about the growth at 10 µM [1] of the same molecule?
Answer: 122%

Question: What about the growth at 10 µM (SF-539) of the same molecule?
Answer: 98.4%

Question: And the IC50 (MCF7)?
Answer: > 20 µM

Question: What about the growth at 10 µM (HCC 2998) of the same molecule?
Answer: 102%

Question: What about the growth at 10 µM [2] of the same molecule?
Answer: 92.1%

Question: And the growth at 10 µM (SN12C)?
Answer: 91.3%

Question: What about the growth at 10 µM (KM12) of the same molecule?
Answer: 92.1%

Question: What about the growth at 10 µM (CCRF-CEM) of the same molecule?
Answer: 94.2%

Question: What about the growth at 10 µM [3] of the same molecule?
Answer: 91.3%

Question: And the growth at 10 µM (RXF 393)?
Answer: 92.3%

Question: What about the growth at 10 µM (ACHN) of the same molecule?
Answer: 110%

Question: And the growth at 10 µM [4]?
Answer: 110%

Question: What about the growth at 10 µM (A498) of the same molecule?
Answer: 97.4%

Question: What about the growth at 10 µM (U-251) of the same molecule?
Answer: 98.8%

Question: And the growth at 10 µM [5]?
Answer: 89.1%

Question: And the growth at 10 µM (TK-10)?
Answer: 103%

Question: What about the growth at 10 µM (SK-MEL-5) of the same molecule?
Answer: 85.1%

Question: What about the growth at 10 µM (COLO 205) of the same molecule?
Answer: 125%

Question: And the growth at 10 µM (HOP-62)?
Answer: 99.8%

Question: What about the growth at 10 µM (RPMI-8226) of the same molecule?
Answer: 88.8%

Question: What about the growth at 10 µM [6] of the same molecule?
Answer: 91.9%

Question: What about the growth at 10 µM (IGROV-1) of the same molecule?
Answer: 107%

Question: And the growth at 10 µM (HL-60(TB))?
Answer: 95.7%

Question: And the growth at 10 µM (T47D)?
Answer: 72.2%

Question: What about the growth at 10 µM (SNB-19) of the same molecule?
Answer: 101%

Question: And the growth at 10 µM (HT-29)?
Answer: 103%

Question: And the growth at 10 µM [7]?
Answer: 104%

Question: And the growth at 10 µM (786-0)?
Answer: 80.1%

Question: And the growth at 10 µM [8]?
Answer: 97.1%

Question: What about the growth at 10 µM [9] of the same molecule?
Answer: 91.1%

Question: And the growth at 10 µM [10]?
Answer: 109%

Question: And the growth at 10 µM (K562)?
Answer: 101%

Question: For CC(C)=CCC[C@H](C)c1ccc(C)c(CNCCO)c1O, which IC50 (MDA-MB-231) is on record?
Answer: > 20 µM

Question: And the growth at 10 µM (SNB-75)?
Answer: 77.7%

Question: What about the growth at 10 µM (SK-MEL-2) of the same molecule?
Answer: 93%

Question: What about the growth at 10 µM (A549) of the same molecule?
Answer: 94.4%

Question: What about the growth at 10 µM [1] of the same molecule?
Answer: 88.9%

Question: And the growth at 10 µM (SF-539)?
Answer: 96.5%

Question: And the IC50 (MCF7)?
Answer: > 20 µM

Question: What about the growth at 10 µM (HCC 2998) of the same molecule?
Answer: 76.9%

Question: And the growth at 10 µM [2]?
Answer: 89.6%

Question: What about the growth at 10 µM (SN12C) of the same molecule?
Answer: 91.5%

Question: What about the growth at 10 µM (KM12) of the same molecule?
Answer: 98.7%

Question: And the growth at 10 µM (CCRF-CEM)?
Answer: 102%

Question: What about the growth at 10 µM [3] of the same molecule?
Answer: 93.4%

Question: What about the growth at 10 µM (RXF 393) of the same molecule?
Answer: 79.2%

Question: What about the growth at 10 µM (ACHN) of the same molecule?
Answer: 97.9%

Question: And the growth at 10 µM [4]?
Answer: 87.6%

Question: What about the growth at 10 µM (A498) of the same molecule?
Answer: 66.5%

Question: What about the growth at 10 µM (U-251) of the same molecule?
Answer: 87.2%

Question: What about the growth at 10 µM [5] of the same molecule?
Answer: 88.1%

Question: What about the growth at 10 µM (TK-10) of the same molecule?
Answer: 81%

Question: And the growth at 10 µM (SK-MEL-5)?
Answer: 92.5%

Question: What about the growth at 10 µM (COLO 205) of the same molecule?
Answer: 105%

Question: What about the growth at 10 µM (HOP-62) of the same molecule?
Answer: 81%

Question: What about the growth at 10 µM (RPMI-8226) of the same molecule?
Answer: 86.9%

Question: And the growth at 10 µM [6]?
Answer: 81.7%

Question: What about the growth at 10 µM (IGROV-1) of the same molecule?
Answer: 94.9%

Question: And the growth at 10 µM (HL-60(TB))?
Answer: 92.7%

Question: And the growth at 10 µM (T47D)?
Answer: 90.2%

Question: What about the growth at 10 µM (SNB-19) of the same molecule?
Answer: 88.1%

Question: What about the growth at 10 µM (HT-29) of the same molecule?
Answer: 90.6%

Question: And the growth at 10 µM [7]?
Answer: 83.1%

Question: What about the growth at 10 µM (786-0) of the same molecule?
Answer: 83.7%

Question: And the growth at 10 µM [8]?
Answer: 88.7%

Question: And the growth at 10 µM [9]?
Answer: 95.7%

Question: What about the growth at 10 µM [10] of the same molecule?
Answer: 98.6%

Question: And the growth at 10 µM (K562)?
Answer: 76.8%
